Data reported in PMC10101059, “Rational Design of Stapled Antimicrobial Peptides to Enhance Stability and In Vivo Potency against Polymicrobial Sepsis” (Microbiology Spectrum, 2023).
Converted amounts (≈) assume the structure as drawn. Bridge positions count the residues as written; N and C are the ends. Square brackets hold non-standard residues; d marks the D form. Peptide text beside a SMILES is read from it. R5 = C=CCCC[C@@](C)(N)C(=O)O

Tests used:
Salmonella enterica = test: microbe, parasite or virus in culture; type: cell-based; details: Salmonella enterica; MHB medium
In short: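 Broth microdilution per modified NCCLS protocol: 5 × 10^5 CFU/mL bacteria exposed to serial peptide concentrations, 37 ± 2°C for 16 to 20 h. MIC = lowest concentration giving clear wells; clear wells plated on Mueller-Hinton agar overnight at 37 ± 2°C, MBC = lowest concentration with no growth. Serum sensitivity tested in medium with 50% human serum.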

Staphylococcus aureus = type: cell-based
Protocol: The antimicrobial assay was performed according to a modified National Committee for Clinical Laboratory Standards (NCCLS) protocol ([41], [42]). Briefly, 5 × 10^5 CFU/mL bacterial cells were treated with various peptide concentrations and incubated at 37 ± 2°C for 16 to 20 h. The lowest concentration with clear wells was recorded as the MIC for each test molecule. The clear wells were further plated in Mueller-Hinton agar (MHA) plates, followed by incubation overnight at 37 ± 2°C. After plating, the lowest concentration at which no growth was observed was recorded as the MBC. For the serum sensitivity assay, the antimicrobial activity of the peptides was tested in medium containing 50% human serum ([43], [44]).

human red blood cells = type: cell-based
In short: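 Healthy human blood as a 2% cell suspension in normal saline was mixed 1:1 with peptide at graded concentrations and held at 37 ± 2°C for 1 h. After centrifugation, supernatant absorbance at 540 nm gave percent hemolysis relative to controls.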

A. baumannii [1] = test: NPN membrane permeabilization assay; type: cell-based, Acinetobacter baumannii; details: 25 μM, 10^8 CFU/mL
Protocol: Mid-log-phase bacterial cells (A. baumannii) were resuspended in 10 mM PBS (pH 7.4) to a density of 10^8 CFU/mL. The cell suspension was supplemented with 25 mM glucose followed by 15 min incubation at 37°C. After the incubation, N-phenyl-1-naphthylamine dye was added to a final concentration of 10 μM. Next, 90 μL of bacterial cells was transferred to a 96-well black plate, and fluorescence was recorded for 40 min (excitation/emission: 350/420 nm). […] After this treatment, fluorescence was recorded for an additional 20 min ([53]). Data are presented as fluorescence values as a function of time. Permeabilization of blank- and test compound-treated cells was compared. For the PI membrane permeabilization assay, 10^8 bacterial cells (A. baumannii) were resuspended in MHB containing 20 μg/mL PI. […] Fluorescence was read (excitation/emission: 584/620 nm). Fluorescence values of blank- and compound-treated cells were graphed as a function of time ([54], [55]).

A. baumannii [2] = test: DiBAC4(3) membrane depolarization assay; type: cell-based, Acinetobacter baumannii; details: compared to the blank control
Protocol: Mid-log-phase A. baumannii bacterial cells were suspended in 10 mM PBS (pH 7.4) at a density of 10^8 CFU/mL. The cell suspension was then supplemented with 25 mM glucose, followed by 15 min incubation at 37°C. Then, the cell suspension was mixed with 500 nM DiBAC4(3) and incubated for 50 min. After incubation, 90 μL of the cell suspension was transferred to a 96-well plate, and fluorescence was recorded (excitation/emission: 480/520 nm) until the signal stabilized (~40 min). […] Data for blank- and compound-treated groups were compared by plotting fluorescence as function of time ([56]).

female C57BL/6 mice = test: In vivo toxicity
Protocol: The in vivo toxicity of TP4-3 was assessed in female C57BL/6 mice (BioLasco, Ilan, Taiwan) upon intravenous administration of TP4-3 (9, 45, and 60 mg/kg). […] All animals were monitored for 7 days. The number of dead animals and animal body weights were measured every 24 h. Seven days after the drug administration, blood samples were collected, and the animals were euthanized. ALT (GPT), AST (GOT), CRE, and BUN were analyzed using a dry-chemistry analyzer (Fujifilm DRI-CHEM 4000i) and commercially available kits (Fujifilm Corp., Tokyo, Japan) ([23], [54]). All animal experiments were approved by the institutional ethical committee (IACUC, Academia Sinica; ID no. 2021-12-1577 and 2021-12-1771).

Row | Compound | MBC (Salmonella enterica) | MIC (Salmonella enterica) | MBC (Staphylococcus aureus) | MIC (Staphylococcus aureus) | 15% hemolysis concn (human red blood cells) | NPN fluorescence signal vs controls (A. baumannii [1]) | DiBAC4(3) fluorescence signal (membrane depolarization) (A. baumannii [2]) | time to death after treatment (female C57BL/6 mice; 60 mg/kg i.v.) | body weight (female C57BL/6 mice; i.v. 9 or 45 mg/kg, 7 days) | survival (female C57BL/6 mice; i.v. doses of 9 or 45 mg/kg, 7 days) | kidney (BUN, CRE) and liver (GOT, GPT) function markers (female C57BL/6 mice; i.v., TP4-3 up to 45 mg/kg, meropenem 10 mg/kg, day 7)
1 | C[C@@H](O)[C@H]1C(=O)N2C(C(=O)O)=C(S[C@@H]3CN[C@H](C(=O)N(C)C)C3)[C@H](C)[C@H]12 [Meropenem] | 6.25 µM (≈ 2.4 µg/mL) | 3.13 to 6.25 µM (≈ 1.2 to 2.4 µg/mL) |  |  |  |  |  |  |  |  | 
2 | CC[C@H](C)[C@H](NC(=O)[C@@H](NC(=O)[C@@H](N)Cc1ccccc1)[C@@H](C)CC)C(=O)N[C@]1(C)CCCC=CCCC[C@](C)(C(=O)NCC(=O)N[C@@H](CC(C)C)C(=O)N[C@@H](Cc2ccccc2)C(=O)N[C@@H](CCCCN)C(=O)N[C@@H](CCCCN)C(=O)N[C@@H](CCCCN)C(=O)N[C@@H](C)C(=O)NCC(=O)N[C@@H](C)C(=O)N[C@]2(C)CCCC=CCCC[C@](C)(C(=O)N[C@H](C(=O)N[C@@H](CCCCN)C(=O)N[C@@H](CCCCN)C(=O)O)[C@@H](C)CC)NC(=O)[C@H](CCCCN)NC(=O)[C@H](CCCCN)NC(=O)[C@H](CCCCN)NC2=O)NC(=O)[C@H](CO)NC(=O)[C@H](CCCCN)NC(=O)[C@H](CCCCN)NC1=O [TP4-3] (H-FII[R5]KKS[R5]GLFKKKAGA[R5]KKK[R5]IKK-OH; staple 4-8, 18-22; N-terminus and C-terminus assumed) |  |  | >25 µM | >25 µM | >100 µM | ~4 fold | substantial rise in the fluorescence signal | ≤ 10 min | No significant changes in body weight | All treated animals survived | no obvious effects
